# Source: patent publication US12371454B2, “Cyclic peptide compound having Kras inhibitory action” (priority 2019, dated 2025)
# pIC50: −log10 of the molar value. Starred links: 1 amine or outer side, 2 acyl side, 3 side chain; linkers in the order of their positions; H or OH if unused. Positions of bridges follow the written chain, without caps; N, C: chain ends. Non-standard residues stand in square brackets, D forms with d. Residues, ends and D or L forms follow the SMILES beside them. *: point of attachment. hPhe(3,5-F2-4-CF3) = N[C@@H](CCc1cc(F)c(C(F)(F)F)c(F)c1)C(=O)O; hPhe(3-Cl-4-CF3) = N[C@@H](CCc1ccc(C(F)(F)F)c(Cl)c1)C(=O)O; hPhe(3-F,4-CF3) = N[C@@H](CCc1ccc(C(F)(F)F)c(F)c1)C(=O)O; X74 = O=C([C@H](CCc1cc(Cl)c(Cl)c(Cl)c1)N[*:1])[*:2]; NMePhe(2-CF3) = CN[C@@H](Cc1ccccc1C(F)(F)F)C(=O)O; 3Oxa8azabicyclo(3.2.1)octane = C1CC2COCC1N2*; NMePhe(3-Cl) = CN[C@@H](Cc1cccc(Cl)c1)C(=O)O; NMePhe(4-Me) = CN[C@@H](Cc1ccc(C)cc1)C(=O)O; NMedβ3hAla = C[C@H](CC(=O)[*:2])N(C)[*:1]; NMeAla(cPent) = CN[C@@H](CC1CCCC1)C(=O)O; NMeGly(cPent) = CN[C@H](C(=O)O)C1CCCC1; NMe3Pal = CN[C@@H](Cc1cccnc1)C(=O)O; NMeCha = CN[C@@H](CC1CCCCC1)C(=O)O; X2 = C=CC[C@](C)(N[*:1])C(=O)[*:2]; NEtLeu = CCN[C@@H](CC(C)C)C(=O)O; NMeChg = CN[C@H](C(=O)O)C1CCCCC1; NMeI = CC[C@H](C)[C@H](NC)C(=O)O; NMeD = CN[C@@H](CC(=O)O)C(=O)O; NMeL = CN[C@@H](CC(C)C)C(=O)O; NMeNva = CCC[C@H](NC)C(=O)O; NMeV = CN[C@H](C(=O)O)C(C)C; d(β3hA) = C[C@@H](N)CC(=O)O; NMeS = CN[C@@H](CO)C(=O)O; Ac6c = NC1(C(=O)O)CCCCC1; NMeA = CN[C@@H](C)C(=O)O; Piperidide = C1CCN(*)CC1; Pyrrolidide = C1CCN(*)C1; Ac5c = NC1(C(=O)O)CCCC1; Aze = O=C(O)[C@@H]1CCN1; CH2CMe2OH = CC(C)(O)C*; Sar = CNCC(=O)O; Propyl = CCC*
# Legend:
# [1] = molecular target: T1, Kras and SOS1 (biotin-tagged human Kras loaded with GDP, His-tagged human SOS1) (Homo sapiens, UniProt P01116, G12D); assay: Protein-protein interaction inhibition between Kras and SOS1 (KrasGl2D-SOS PPI) using AlphaScreen; format: binding; conditions: AlphaScreen; biotin-tagged human Kras loaded with GDP, His-tagged human SOS1; read-out: KRAS G12D-SOS PPI IC50
# T1 construct: made in house; host or cells: E. coli (stated for Kras only)
# T1 sequence (P01116 1-188 isoform P01116-2 G12D): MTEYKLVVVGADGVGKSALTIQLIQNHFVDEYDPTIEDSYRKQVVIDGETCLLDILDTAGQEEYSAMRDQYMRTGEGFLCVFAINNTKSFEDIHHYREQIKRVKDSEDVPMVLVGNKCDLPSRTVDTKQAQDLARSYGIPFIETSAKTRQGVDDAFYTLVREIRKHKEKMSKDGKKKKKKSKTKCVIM
# Outline: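 Kras was produced in E. coli, purified, then loaded with GDP. It was paired via streptavidin acceptor beads with His-SOS1 held on nickel donor beads, and proximity signal at 520-620 nm was read after 680 nm illumination.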
# [2] = test system: Human pancreatic cancer cell line AsPC-1; assay: Measurement of AsPC-1 cell growth inhibition (AsPC-1 CGI); format: cell-based; conditions: 96 h
# Outline: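 AsPC-1 cells in 15% FBS RPMI-1640 were exposed to test compound for 96 hours at 37° C, with CellTiter-Glo as endpoint.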
Compound,pIC50 [1],pIC50 [2]
CC[C@H](C)[C@@H]1NC(=O)[C@H](CC(C)C)N(C)C(=O)C[C@@H](C(=O)N2CCCCC2)N(C)C(=O)[C@H](C(C)C)N(C)C(=O)C2(CCCC2)NC(=O)[C@@H]2CCCN2C(=O)[C@H](CCc2ccc(C(F)(F)F)c(Cl)c2)NC(=O)CN(C)C(=O)[C@H](CC2CCCCC2)N(C)C(=O)[C@@H]2CCN2C(=O)[C@H](COCC(C)(C)O)N(C)C1=O [Compound 86] ([NMeL]I[NMeS](CH2CMe2OH)[Aze][NMeCha][Sar][hPhe(3-Cl-4-CF3)]P[Ac5c][NMeV][NMeD]-Piperidide; lactam N-11),8.05,6.30 to 7.00
"CC[C@H](C)[C@@H]1NC(=O)[C@H](CC(C)C)N(C)C(=O)C[C@@H](C)NC(=O)[C@H](C(C)C)N(C)C(=O)C2(CCCC2)NC(=O)[C@@H]2CCCN2C(=O)[C@H](CCc2ccc(C(F)(F)F)c(F)c2)NC(=O)CN(C)C(=O)[C@H](CC2CCCCC2)N(C)C(=O)[C@@H]2CCN2C(=O)CN(C)C1=O [Compound 211] (cyclo([Ac5c][NMeV][d(β3hA)][NMeL]I[Sar][Aze][NMeCha][Sar][hPhe(3-F,4-CF3)]P))",7.37,6.30 to 7.00
CC[C@H](C)[C@@H]1NC(=O)[C@H](CC(C)C)N(C)C(=O)C[C@@H](C)N(C)C(=O)[C@H](C(C)C)N(C)C(=O)C2(CCCC2)NC(=O)[C@@H]2CCCN2C(=O)[C@H](CCc2ccc(C(F)(F)F)c(Cl)c2)NC(=O)CN(C)C(=O)[C@H](Cc2ccccc2C(F)(F)F)N(C)C(=O)CN(C)C(=O)CN(C)C1=O [Compound 1567] (cyclo([Ac5c][NMeV][NMedβ3hAla][NMeL]I[Sar][Sar][NMePhe(2-CF3)][Sar][hPhe(3-Cl-4-CF3)]P)),7.48,6.30 to 7.00
C=CC[C@]1(C)NC(=O)[C@@H]2CCCN2C(=O)[C@H](CCc2ccc(C(F)(F)F)c(Cl)c2)NC(=O)CN(C)C(=O)[C@H](CC2CCCCC2)N(C)C(=O)CN(C)C(=O)CN(C)C(=O)[C@H]([C@@H](C)CC)NC(=O)[C@H](CC(C)C)N(C)C(=O)C[C@@H](C(=O)N2CCCCC2)N(C)C(=O)[C@H](C(C)C)N(C)C1=O [Compound 1109] ([NMeL]I[Sar][Sar][NMeCha][Sar][hPhe(3-Cl-4-CF3)]P[X2][NMeV][NMeD]-Piperidide; lactam N-11),7.64,6.30 to 7.00
CC[C@H](C)[C@@H]1NC(=O)[C@H](CC(C)C)N(C)C(=O)C[C@@H](C(=O)N(C)C)N(C)C(=O)[C@H]([C@@H](C)CC)N(C)C(=O)C2(CCCC2)NC(=O)[C@H](Cc2cccc(Cl)c2)N(C)C(=O)[C@H](CCc2ccc(C(F)(F)F)c(Cl)c2)NC(=O)CN(C)C(=O)[C@H](Cc2ccc(C)cc2)N(C)C(=O)[C@@H]2CCN2C(=O)[C@H](C)N(C)C1=O [Compound 783] ([NMeL]I[NMeA][Aze][NMePhe(4-Me)][Sar][hPhe(3-Cl-4-CF3)][NMePhe(3-Cl)][Ac5c][NMeI][NMeD]-NMe2; lactam N-11),8.01,7.00 to 7.30
CC[C@H](C)[C@@H]1NC(=O)[C@H](CC(C)C)N(C)C(=O)C[C@@H](C(=O)N2CCCCC2)N(C)C(=O)[C@H](C(C)C)N(C)C(=O)C2(CCCCC2)NC(=O)[C@@H]2CCCN2C(=O)[C@H](CCc2ccc(C(F)(F)F)c(Cl)c2)NC(=O)CN(C)C(=O)[C@H](CC2CCCCC2)N(C)C(=O)CN(C)C(=O)CN(C)C1=O [Compound 600] ([NMeL]I[Sar][Sar][NMeCha][Sar][hPhe(3-Cl-4-CF3)]P[Ac6c][NMeV][NMeD]-Piperidide; lactam N-11),8.35,6.30 to 7.00
CC[C@H](C)[C@@H]1NC(=O)[C@H](CC(C)C)N(C)C(=O)C[C@@H](C(=O)N2CCCCC2)N(C)C(=O)[C@H]([C@@H](C)CC)N(C)C(=O)C2(CCCC2)NC(=O)[C@@H]2CCCN2C(=O)[C@H](CCc2ccc(C(F)(F)F)c(Cl)c2)NC(=O)CN(C)C(=O)[C@H](CC2CCCCC2)N(C)C(=O)[C@@H]2CCN2C(=O)[C@H](C)N(C)C1=O [Compound 1722] ([NMeL]I[NMeA][Aze][NMeCha][Sar][hPhe(3-Cl-4-CF3)]P[Ac5c][NMeI][NMeD]-Piperidide; lactam N-11),,7.30 to 7.70
CCC[C@H]1C(=O)N[C@@H]([C@@H](C)CC)C(=O)N(C)[C@@H](C)C(=O)N2CC[C@H]2C(=O)N(C)[C@@H](CC2CCCCC2)C(=O)N(C)CC(=O)N[C@@H](CCc2ccc(C(F)(F)F)c(Cl)c2)C(=O)N2CCC[C@H]2C(=O)NC2(CCCC2)C(=O)N(C)[C@@H](C(C)C)C(=O)N(C)[C@H](C(=O)N2CCCCC2)CC(=O)N1C [Compound 1639] ([NMeNva]I[NMeA][Aze][NMeCha][Sar][hPhe(3-Cl-4-CF3)]P[Ac5c][NMeV][NMeD]-Piperidide; lactam N-11),,6.30 to 7.00
CC[C@H](C)[C@@H]1NC(=O)[C@H](CC(C)C)N(C)C(=O)C[C@@H](C(=O)N2CCCC2)N(C)C(=O)[C@H](C2CCCCC2)N(C)C(=O)C2(CCCC2)NC(=O)[C@H](Cc2cccnc2)N(C)C(=O)[C@H](CCc2ccc(C(F)(F)F)c(Cl)c2)NC(=O)CN(C)C(=O)[C@H](CC2CCCCC2)N(C)C(=O)CN(C)C(=O)CN(C)C1=O [Compound 1693] ([NMeL]I[Sar][Sar][NMeCha][Sar][hPhe(3-Cl-4-CF3)][NMe3Pal][Ac5c][NMeChg][NMeD]-Pyrrolidide; lactam N-11),,6.30 to 7.00
CC[C@H](C)[C@@H]1NC(=O)[C@H](CC(C)C)N(CC)C(=O)C[C@@H](C(=O)N(C)C)N(C)C(=O)[C@H]([C@@H](C)CC)N(C)C(=O)C2(CCCC2)NC(=O)[C@@H]2CCCN2C(=O)[C@H](CCc2ccc(C(F)(F)F)c(Cl)c2)NC(=O)CN(C)C(=O)[C@H](Cc2ccc(C)cc2)N(C)C(=O)[C@@H]2CCN2C(=O)[C@H](C)NC1=O [Compound 1287] ([NEtLeu]IA[Aze][NMePhe(4-Me)][Sar][hPhe(3-Cl-4-CF3)]P[Ac5c][NMeI][NMeD]-NMe2; lactam N-11),,7.30 to 7.70
"CC[C@H](C)[C@@H]1NC(=O)[C@H](C)N(C)C(=O)C[C@@H](C(=O)N2CCCCC2)N(C)C(=O)[C@H](C2CCCCC2)N(C)C(=O)C2(CCCC2)NC(=O)[C@@H]2CCCN2C(=O)[C@H](CCc2cc(Cl)c(Cl)c(Cl)c2)NC(=O)CN(C)C(=O)[C@H](CC2CCCCC2)N(C)C(=O)CN(C)C(=O)CN(C)C1=O [Compound 2059, (3S,9S,18S,21S,25S,28S,34S)-28-cyclohexyl-9-(cyclohexylmethyl)-7,10,13,16,21,22,26,29-octamethyl-18-[(1S)-1-methylpropyl]-25-(piperidine-1-carbonyl)-3-[2-(3,4,5-trichlorophenyl)ethyl]spiro[1,4,7,10,13,16,19,22,26,29,32-undecazabicyclo[32.3.0]heptatriacontane-31,1′-cyclopentane]-2,5,8,11,14,17,20,23,27,30,33-undecone] ([NMeA]I[Sar][Sar][NMeCha][Sar][X74]P[Ac5c][NMeChg][NMeD]-Piperidide; lactam N-11)",,6.30 to 7.00
CC[C@H](C)[C@@H]1NC(=O)[C@H](CC(C)C)N(C)C(=O)C[C@@H](C(=O)N2CCCC2)N(C)C(=O)[C@H](C(C)C)N(C)C(=O)C2(CCCC2)NC(=O)[C@@H]2CCCN2C(=O)[C@H](CCc2ccc(C(F)(F)F)c(Cl)c2)NC(=O)CN(C)C(=O)[C@H](Cc2ccc(C)cc2)N(C)C(=O)[C@@H]2CCN2C(=O)[C@H](C)N(C)C1=O [Compound 1866] ([NMeL]I[NMeA][Aze][NMePhe(4-Me)][Sar][hPhe(3-Cl-4-CF3)]P[Ac5c][NMeV][NMeD]-Pyrrolidide; lactam N-11),,6.30 to 7.00
"CCCOC[C@H]1C(=O)N(C)CC(=O)N[C@@H](CCc2ccc(C(F)(F)F)c(F)c2)C(=O)N2CCC[C@H]2C(=O)NC2(CCCC2)C(=O)N(C)[C@@H]([C@@H](C)CC)C(=O)N(C)[C@H](C(=O)N2C3CCC2COC3)CC(=O)N(C)[C@@H](CC(C)C)C(=O)N[C@@H]([C@@H](C)CC)C(=O)N(C)[C@@H](C)C(=O)N2CC[C@H]2C(=O)N1C [Compound 408] ([NMeL]I[NMeA][Aze][NMeS](Propyl)[Sar][hPhe(3-F,4-CF3)]P[Ac5c][NMeI][NMeD]-{3Oxa8azabicyclo(3.2.1)octane}; lactam N-11)",,7.00 to 7.30
CC[C@H](C)[C@@H]1NC(=O)[C@H](CC(C)C)N(C)C(=O)C[C@@H](C(=O)N2CCCCC2)N(C)C(=O)[C@H](C(C)C)N(C)C(=O)C2(CCCC2)NC(=O)[C@@H]2CCCN2C(=O)[C@H](CCc2ccc(C(F)(F)F)c(Cl)c2)NC(=O)CN(C)C(=O)[C@H](Cc2ccc(C)cc2)N(C)C(=O)[C@@H]2CCN2C(=O)[C@H](C)N(C)C1=O [Compound 1828] ([NMeL]I[NMeA][Aze][NMePhe(4-Me)][Sar][hPhe(3-Cl-4-CF3)]P[Ac5c][NMeV][NMeD]-Piperidide; lactam N-11),,6.30 to 7.00
"CCCOC[C@H]1C(=O)N(C)CC(=O)N[C@@H](CCc2cc(F)c(C(F)(F)F)c(F)c2)C(=O)N2CCC[C@H]2C(=O)NC2(CCCC2)C(=O)N(C)[C@@H](C2CCCC2)C(=O)N(C)[C@H](C(=O)N2C3CCC2COC3)CC(=O)N(C)[C@@H](CC(C)C)C(=O)N[C@@H]([C@@H](C)CC)C(=O)N(C)[C@@H](C)C(=O)N2CC[C@H]2C(=O)N1C [Compound 1355] ([NMeL]I[NMeA][Aze][NMeS](Propyl)[Sar][hPhe(3,5-F2-4-CF3)]P[Ac5c][NMeGly(cPent)][NMeD]-{3Oxa8azabicyclo(3.2.1)octane}; lactam N-11)",,7.30 to 7.70
CC[C@H](C)[C@@H]1NC(=O)[C@H](CC2CCCC2)N(C)C(=O)C[C@@H](C(=O)N2CCCCC2)N(C)C(=O)[C@H](C(C)C)N(C)C(=O)C2(CCCC2)NC(=O)[C@@H]2CCCN2C(=O)[C@H](CCc2ccc(C(F)(F)F)c(Cl)c2)NC(=O)CN(C)C(=O)[C@H](CC2CCCCC2)N(C)C(=O)[C@@H]2CCN2C(=O)[C@H](C)N(C)C1=O [Compound 37] ([NMeAla(cPent)]I[NMeA][Aze][NMeCha][Sar][hPhe(3-Cl-4-CF3)]P[Ac5c][NMeV][NMeD]-Piperidide; lactam N-11),,6.30 to 7.00
